From publication PMC12670405, “Second-Generation AURKA-Targeting PROTACs: Structural Optimization toward in Vivo Degradation in Neuroblastoma” (Journal of Medicinal Chemistry, 2025)

Key:
SJNB-8 = test: IncuCyte live-cell imaging, antiproliferative effect; assay type: cell-based; settings: Homo sapiens, 72 h, read-out: Cell GI50 72h, SJNB-8
Outline: (§1)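 Cells seeded in 384-well plates (neuroblastoma 1200–5000, HEK293T 600 cells/well), adhered overnight, then compound-treated in duplicate or triplicate; confluency tracked by IncuCyte live-cell imaging. Normalized confluence averaged from 3 experiments; absolute GI50 interpolated from four-parameter variable-slope curves.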

NGP = test: as above; assay type: cell-based; settings: Homo sapiens, 72 h, read-out: Cell GI50 72h, NGP (Figure 4B)
Outline: as §1

SK-N-AS = test: as above; assay type: cell-based; settings: Homo sapiens, 72 h, read-out: Cell GI50 72h
Outline: as §1

HEK293T = test: as above; assay type: cell-based; settings: Homo sapiens, HEK-293T, 72 h, read-out: Cell GI50 72h
Outline: as §1

SK-N-SH = test: as above; assay type: cell-based; settings: Homo sapiens, 72 h, read-out: Cell GI50 72h
Outline: as §1

RPE = test: as above; assay type: cell-based; settings: 72 h, read-out: Cell GI50 72h
IMR-32 = test: as above; assay type: cell-based; settings: Homo sapiens, IMR-32, 72 h, read-out: Cell GI50 72h, IMR-32
Outline: as §1

NanoLuc-AURKA [1] = biological target: T1, NanoLuc-AURKA (Homo sapiens, UniProt O14965); test: NanoBRET target engagement, permeabilized mode; assay type: binding; settings: permeabilized HEK293T
T1 construct: Plasmids encoding full-length wild-type AURKA fused to Nano-Luc; host or cells: HEK293T
T1 sequence (O14965 1-403): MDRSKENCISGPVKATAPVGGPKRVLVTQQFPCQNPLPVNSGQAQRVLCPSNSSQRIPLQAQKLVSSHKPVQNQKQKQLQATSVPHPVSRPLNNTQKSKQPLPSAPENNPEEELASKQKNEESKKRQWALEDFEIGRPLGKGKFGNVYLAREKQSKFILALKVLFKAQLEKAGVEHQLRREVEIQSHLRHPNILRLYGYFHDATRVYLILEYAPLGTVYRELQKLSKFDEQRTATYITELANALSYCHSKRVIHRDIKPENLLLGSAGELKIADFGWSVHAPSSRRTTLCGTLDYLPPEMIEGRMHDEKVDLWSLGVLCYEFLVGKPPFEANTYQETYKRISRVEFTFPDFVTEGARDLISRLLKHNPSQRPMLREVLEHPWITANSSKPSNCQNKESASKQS
Procedure: (§2) The NanoBRET Target Engagement Assay (Promega) was performed according to the recommended instructions from the manufacturer. Plasmids encoding full-length wild-type AURKA fused to Nano-Luc via AURKA’s C-terminus (Promega, #NV1041) were transfected into HEK293T cells using FuGENE HD (Promega, #E2312). […] The plate was mixed at 900 rpm for 15 s, using an orbital shaker. For the permeabilized-mode, digitonin (Sigma-Aldrich, #D141) was additionally added at a final concentration of 50 μg/mL. Test compounds were subsequently administered in duplicate using the D300e digital dispenser (Tecan), followed by incubation for 2 h (37 °C, 5% CO2). To measure BRET, nanoglo substrate and extracellular nanoluc inhibitor (only in live-mode) (Promega #N2540) were added, and luminescence was measured using the GloMax Discover Microplate Reader (Promega) with a luminescence filter pair of 450 nm (BP filter, donor) and 600 nm (LP filter, acceptor). The NanoBRET ratio was calculated using the following formula: BRET ratio = 1000*[(acceptor signal/donor signal)with tracer – (acceptor signal/donor signal)no tracer]. Relative BRET ratios (%) were generated by normalizing to the negative DMSO control. The experiment was performed once with 2 replicate samples.
(§3) All dose–response curves were computed on GraphPad Prism using the Variable Slope (four parameters) equation. Absolute half-maximal degradation (DC50), growth inhibitory (GI50) and enzymatic inhibitory (IC50) concentrations, as well as inhibition constants (Ki) were derived from dose–response curves via interpolation. Statistical tests were performed on GraphPad Prism and detailed in the figure legends. Unless otherwise stated, “n” in the figure legends indicates the number of independent experiments conducted at different times.

SK-N-BE(2)-C = test: IncuCyte live-cell imaging, antiproliferative effect; assay type: cell-based, human; settings: Homo sapiens, SK-N-BE(2)-C, 72 h, read-out: Cell GI50 72h
Excerpt: Human neuroblastoma cell lines NGP, IMR-32, SJNB-8, SK-N-BE(2)-C, SJNB-1, SK-N-SH and SK-N-AS, as well as benign immortalized cell lines RPE and HEK293T were either bought commercially or obtained through research laboratories. […] Screening for mycoplasma contamination occurred routinely on the cells. Human neuroblastoma cell lines SH-SY5Y_shABCB1 & SH-SY5Y_shNTC were generated by transduction with pLKO.1-ABCB1_TRCN0000059683 shRNA (Sigma MISSION SHCLND) or pLKO.1-puro NT shRNA (Sigma MISSION SHC002) vectors respectively (Supplementary Table S6), packaged using Lenti-X293T (Clontech). Transduced cells were selected with 2 μg/mL puromycin. These cells were cultured in DMEM 4.5 g/L D-Glucose, L-Glutamine and 110 mg/L Sodium Pyruvate (Gibco, #11995065) supplemented with 10% fetal bovine serum, 1× Antibiotic-Antimycotic solution (Sigma-Aldrich, #A5955) and 1× MEM nonessential amino acids (Sigma-Aldrich, #M7145). Incubation of all cells occurred at 37 °C and 5% CO2.
Neuroblastoma cells were seeded in 384-well plates at different densities ranging from 1200 to 5000 cells/well and allowed to adhere overnight. RPE and HEK293T were seeded at 200 and 600 cells/well, respectively. Compound treatment was performed using the D300e Digital Dispenser (Tecan) in duplicate or triplicate and cell confluency was monitored over time using the IncuCyte Live-cell imaging system (Sartorius). […] Mean normalized confluences were calculated from 3 individual experiments.
as §3

NanoLuc-AURKA [2] = biological target: T1, NanoLuc-AURKA; test: NanoBRET target engagement, live (intact) cells; assay type: cell-based; settings: intact HEK293T
Procedure: as §2, §3

GI50 (SK-N-AS)	GI50 (SK-N-SH)	potency relative to SK4454 and SK5527 in NanoBRET (NanoLuc-AURKA [1])	GI50 (SK-N-BE(2)-C)	NanoLuc-AURKA engagement in intact cells (in words) (NanoLuc-AURKA [2])	Structure (SMILES)	GI50 (SJNB-8)	GI50 (NGP)	GI50 (HEK293T)	GI50 (RPE)	GI50 (IMR-32)
134 nM	30 nM	at least 10 times	57 nM	–	Cc1cc(Nc2nc(CC3(C(=O)O)CCN(C(=O)c4cccc(Cl)c4Cl)CC3)ccc2F)n[nH]1 [TAS-119, reference compound]	44 nM	20 nM	184 nM	250 nM	11 nM
911 nM	249 nM	at least 10 times	302 nM	stronger AURKA engagement than TAS-119	O=C(O)[C@]1(Cc2cccc(Nc3nccs3)n2)CC[C@@H](Oc2cccc(Cl)c2F)CC1 [MK-5108, reference compound]	348 nM	263 nM	1310 nM	953 nM	119 nM
